Results: patent publication US7906510B2, “Amide derivative and pharmaceutical composition containing the same” (Dainippon Sumito Pharma Co., Ltd., priority 2008, dated 2011)
Counter-ions that a name gives are not always drawn. Values belong to the compound of their own block, whether it stands above or below them.

Tests used:
[1] = molecular target: T1, 5-HT4 receptor (Cavia porcellus, UniProt O70528); experiment: Serotonin 4 (5-HT4) receptor binding assay; design: species or system guinea pig; settings: inhibition of specific binding of 0.1 nM [3H]-GR113808; guinea pig striatum membrane preparations; 37° C., 30 minutes; read-out: IC50
T1 construct: the mixture was suspended to give receptor membrane preparations; from tissue; host or cells: guinea pig (Slc-Hartley) brain striatum membranes
Description: 5-HT4 receptor binding assay and preparations of receptor membrane preparations were carried out according to a method of Grossman et al. [see British J. Pharmacol., (1993) 109, 618].
Slc-Hartley guinea pigs (body weight 300 to 400 g) were decapitated to remove brain rapidly, and striatum was isolated. To the obtained tissues were added fifteenfold of Hepes buffer (50 mM, pH7.4, 4° C.), and the mixture was homogenized by Teflon® homogenizer and centrifuged at 48,000×g (4° C.) for 15 minutes. To the resulting precipitate was added Hepes buffer (1 ml) to 30 mg by wet weight of tissues, and the mixture was suspended to give receptor membrane preparations.
0.1 nM [^3H]-GR113808 {chemical name: [1-[2-(methylsulfonylamino)ethyl]-4-piperidinyl]methyl 1-methylindole-3-carboxylate}, receptor membrane preparations, and Hepes buffer (50 mM, pH7.4, 4° C., 1 ml) containing test compounds or 30 μM serotonin were placed in an assay tube, and incubated at 37° C. for 30 minutes. On quenching the reaction, the mixture was rapidly filtered on whatman GF/B filter, which was presoaked in 0.1% polyethyleneimine for 1 hour, by using Brandel cell Harvester, and washed with ice-cooled 50 mM Tris-HCl (pH7.7, 4 ml) three times. To the filter after filtration was added ACS II scintillator, and then a radioactivity was determined by a liquid scintillation counter.
50% inhibition concentrations (IC50) were determined from inhibition rates of test compounds to specific bindings which were obtained by subtracting nonspecific bindings from total binding amounts of [^3H]-GR113808.

[2] = test system: Male Slc-ddy mice; experiment: Mouse defecation assay; format: in vivo; design: key: −: No Effect; +: Moderately Improved (p<0.05); ++: Significantly Improved (p<0.01); settings: 3 mg/kg orally; stool weight 30, 60 and 120 minutes after administration; Dunnett assay vs control
Description: Male Slc-ddy mice (body weight 25 to 30 g) were used and allowed to ingest food and water ad libitum until commencement of experiments.
A group of 25 mice was divided into 5 groups, which 5 mice each per group were respectively transferred to fasting cages to adjust to new environments for about 1 hour. Then, each mouse was orally administered 3 mg/kg suspension of a test compound in 0.5% tragacanth solution to measure each stool weight of each group 30, 60, and 120 minutes after oral administration.
Efficacies were evaluated by Dunnett assay between test compounds and control.

[3] = test system: Male Slc-Hartley guinea pigs; experiment: Electrocardiographic assay for guinea pig; settings: dose extending 5% of QTc; i.v. infusion for 15 minutes, anesthetized guinea pigs, ECG lead II
Description: Male Slc-Hartley guinea pigs were anesthetized to determine electrocardiogram (lead II) under artificial respiration. A drug solution was continuously and intravenously infused via cannula indwelled in cervical veins at a flow rate: 0.2 ml/kg/min for 15 minutes.

T1 sequence (O70528 whole entry): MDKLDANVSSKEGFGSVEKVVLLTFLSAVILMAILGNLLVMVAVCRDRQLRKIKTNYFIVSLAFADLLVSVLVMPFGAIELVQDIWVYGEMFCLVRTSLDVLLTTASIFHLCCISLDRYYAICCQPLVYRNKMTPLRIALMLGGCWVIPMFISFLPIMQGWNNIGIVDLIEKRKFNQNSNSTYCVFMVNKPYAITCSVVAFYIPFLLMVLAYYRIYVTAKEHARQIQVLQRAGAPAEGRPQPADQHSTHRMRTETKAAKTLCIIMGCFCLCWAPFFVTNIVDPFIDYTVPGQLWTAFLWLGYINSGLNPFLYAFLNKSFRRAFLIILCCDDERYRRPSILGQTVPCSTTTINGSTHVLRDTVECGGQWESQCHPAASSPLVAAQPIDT

melting point: 164 to 167 °C (dec.)
Structure (SMILES): COc1cc(N)c(Cl)cc1C(=O)NC[C@H]1CN(CC2CCN(C(=O)CO)CC2)CCO1 (as salt: hydrochloride) [Example 198, 4-amino-5-chloro-N-[{4-[(1-hydroxyacetyl-4-piperidinyl)methyl]-2-morpholinyl}methyl]-2-methoxybenzamide hydrochloride]

IC50 [1]: 11.9 nM
Structure (SMILES): COc1cc(N)c(Cl)cc1C(=O)NC[C@H]1CN(CC2CCN(S(C)(=O)=O)CC2)CCO1 [Example 94]
Effect [2]: ++
ED5% (mg/kg,i.v.) [3]: >30 mg/kg

IC50 [1]: 2.05 nM
Structure (SMILES): COc1cc(N)c(Cl)cc1C(=O)NC[C@H]1CN(CC2CCN(C(=O)c3cccc(C)c3)CC2)CCO1 [Example 119]
Effect [2]: +
ED5% (mg/kg,i.v.) [3]: >30 mg/kg

IC50 [1]: 13.1 nM
Structure (SMILES): COc1cc(N)c(Cl)cc1C(=O)NC[C@H]1CN(CC2CCN(C(=O)c3cocn3)CC2)CCO1 [Example 228]
Effect [2]: ++
ED5% (mg/kg,i.v.) [3]: >30 mg/kg

IC50 [1]: 25.9 nM
Structure (SMILES): COc1cc(N)c(Cl)cc1C(=O)NC[C@H]1CN(CC2CCN(C(=O)CO)CC2)CCO1 [Example 198, 4-amino-5-chloro-N-[{4-[(1-hydroxyacetyl-4-piperidinyl)methyl]-2-morpholinyl}methyl]-2-methoxybenzamide hydrochloride]
Effect [2]: ++
ED5% (mg/kg,i.v.) [3]: >30 mg/kg

IC50 [1]: 45.2 nM
Structure (SMILES): COc1cc(N)c(Cl)cc1C(=O)NC[C@H]1CN(CC2CCN(C(C)=O)CC2)CCO1 [Example 221]
Effect [2]: ++
ED5% (mg/kg,i.v.) [3]: >30 mg/kg

IC50 [1]: 20.2 nM
Structure (SMILES): COc1cc(N)c(Cl)cc1C(=O)NC[C@H]1CN(CC2CCN(C(=O)[C@H](C)OC)CC2)CCO1 [Example 225]
Effect [2]: ++
ED5% (mg/kg,i.v.) [3]: >30 mg/kg

IC50 [1]: 18.1 nM
Structure (SMILES): COc1cc(N)c(Cl)cc1C(=O)NC[C@H]1CN(CC2CCN(C(=O)c3nc[nH]n3)CC2)CCO1 [Example 229]
Effect [2]: ++
ED5% (mg/kg,i.v.) [3]: >30 mg/kg

IC50 [1]: 2.48 nM
Structure (SMILES): COc1cc(N)c(Cl)cc1C(=O)NC[C@H]1CN(CC2CCN(C(=O)c3ccc(Cl)cc3)CC2)CCO1 [Example 115]
Effect [2]: +

IC50 [1]: 14.5 nM
Structure (SMILES): COCCC(=O)N1CCC(CN2CCO[C@@H](CNC(=O)c3cc(Cl)c(N)cc3OC)C2)CC1 [Example 224]
Effect [2]: ++
ED5% (mg/kg,i.v.) [3]: >30 mg/kg

IC50 [1]: 21.2 nM
Structure (SMILES): COc1cc(N)c(Cl)cc1C(=O)NC[C@H]1CN(CC2CCN(C(=O)C3CCOC3)CC2)CCO1 (stereo partly shown) [Example 226]
Effect [2]: ++
ED5% (mg/kg,i.v.) [3]: >30 mg/kg

IC50 [1]: 17.2 nM
Structure (SMILES): COc1cc(N)c(Cl)cc1C(=O)NC[C@H]1CN(CC2CCN(C(=O)CNC(=O)c3ccccc3)CC2)CCO1 [Example 222]
Effect [2]: ++
ED5% (mg/kg,i.v.) [3]: >30 mg/kg

IC50 [1]: 7.33 nM
Structure (SMILES): COc1cc(N)c(Cl)cc1C(=O)NC[C@H]1CN(CC2CCN(C(=O)N3CCCC3)CC2)CCO1 [Example 89]
Effect [2]: +

More lines, now with the values behind:

Structure (SMILES): CCc1ccc(C(=O)N2CCC(CN3CCO[C@@H](CNC(=O)c4cc(Cl)c(N)cc4OC)C3)CC2)cc1 [Example 122]
IC50 [1]: 0.87 nM
Effect [2]: +
ED5% (mg/kg,i.v.) [3]: >30 mg/kg

Structure (SMILES): C=CCOC(=O)N1CCC(CN2CCO[C@@H](CNC(=O)c3cc(Cl)c(N)cc3OC)C2)CC1 [Example 100]
Effect [2]: ++
ED5% (mg/kg,i.v.) [3]: >30 mg/kg

Structure (SMILES): COc1cc(N)c(Cl)cc1C(=O)N[C@H]1CCN(CCCOc2ccc(F)cc2)C[C@H]1OC (relative stereo) [Cisapride, cis-4-amino-5-chloro-N-[1-[3-(4-fluorophenoxy)propyl]-3-methoxy-4-piperidinyl]-2-methoxybenzamide, reference compound]
Effect [2]: −
ED5% (mg/kg,i.v.) [3]: 0.3 mg/kg

Structure (SMILES): CCOc1cc(N)c(Cl)cc1C(=O)NC[C@H]1CN(CC2CCN(C(=O)c3ccc(C)cc3)CC2)CCO1 [Example 121]
IC50 [1]: 0.23 nM
Effect [2]: ++
ED5% (mg/kg,i.v.) [3]: >30 mg/kg

Structure (SMILES): COc1ccc(C(=O)N2CCC(CN3CCO[C@@H](CNC(=O)c4cc(Cl)c(N)cc4OC)C3)CC2)cc1 [Example 125]
IC50 [1]: 3.51 nM
Effect [2]: ++
ED5% (mg/kg,i.v.) [3]: >30 mg/kg

Structure (SMILES): COCC(=O)N1CCC(CN2CCO[C@@H](CNC(=O)c3cc(Cl)c(N)cc3OC)C2)CC1 [Example 132]
Effect [2]: ++
ED5% (mg/kg,i.v.) [3]: >30 mg/kg

Structure (SMILES): COc1cc(N)c(Cl)cc1C(=O)NC[C@H]1CN(CC2CCN(S(=O)(=O)N(C)C)CC2)CCO1.O=C(O)/C=C/C(=O)O [Example 80]
Effect [2]: +
ED5% (mg/kg,i.v.) [3]: >30 mg/kg

Structure (SMILES): COC(=O)N1CCC(CN2CCO[C@@H](CNC(=O)c3cc(Cl)c(N)cc3OC)C2)CC1 [Example 92]
Effect [2]: +
ED5% (mg/kg,i.v.) [3]: >30 mg/kg

Structure (SMILES): COc1cccc(C(=O)N2CCC(CN3CCO[C@@H](CNC(=O)c4cc(Cl)c(N)cc4OC)C3)CC2)c1 [Example 124]
IC50 [1]: 1.95 nM
Effect [2]: +
ED5% (mg/kg,i.v.) [3]: >30 mg/kg

Structure (SMILES): CN(C)C(=O)N1CCC(CN2CCOC(CNC(=O)c3cc(Cl)c(N)c4c3OCC4)C2)CC1 (stereo not shown) [Example 135, 4-amino-5-chloro-N-[{4-[(1-dimethylcarbamoyl-4-piperidinyl)methyl]-2-morpholinyl}methyl]-2,3-dihydrobenzo[b]furan-7-carboxamide 1.5 fumarate]
IC50 [1]: 6.04 nM
Effect [2]: ++
ED5% (mg/kg,i.v.) [3]: >30 mg/kg

Structure (SMILES): COc1cc(N)c(Cl)cc1C(=O)NC[C@H]1CN(CC2CCN(C(=O)Nc3ccc(Cl)c(Cl)c3)CC2)CCO1 [Example 58]
IC50 [1]: 1.97 nM
Effect [2]: +

Structure (SMILES): Nc1c(Cl)cc(C(=O)NC[C@H]2CN(CC3CCN(C(=O)CO)CC3)CCO2)c2c1CCO2 [Example 233, (S)-4-amino-5-chloro-N-[{4-[(1-hydroxyacetyl-4-piperidinyl)methyl]-2-morpholinyl}methyl]-2,3-dihydrobenzo[b]furan-7-carboxamide]
IC50 [1]: 12.1 nM
Effect [2]: ++

Structure (SMILES): COc1cc(N)c(Cl)cc1C(=O)NC[C@H]1CN(CC2CCN(C(=O)c3ccccc3OC(C)=O)CC2)CCO1 [Example 166]
IC50 [1]: 6.93 nM
Effect [2]: ++
ED5% (mg/kg,i.v.) [3]: >30 mg/kg

Structure (SMILES): COc1cc(N)c(Cl)cc1C(=O)NCC1CN(CC2CCN(C(=O)n3ccnc3)CC2)CCO1 [Example 207, (S)-4-amino-5-chloro-N-[{4-[(1-imidazolecarbonyl-4-piperidinyl)methyl]-2-morpholinyl}methyl]-2-methoxybenzamide]
Effect [2]: ++
ED5% (mg/kg,i.v.) [3]: >30 mg/kg

Structure (SMILES): CCOc1cc(N)c(Cl)cc1C(=O)NC[C@H]1CN(CC2CCN(C(=O)c3ccc(Cl)cc3)CC2)CCO1 [Example 116]
IC50 [1]: 0.68 nM
Effect [2]: +
ED5% (mg/kg,i.v.) [3]: >30 mg/kg

Structure (SMILES): COc1cc(N)c(Cl)cc1C(=O)NC[C@H]1CN(CC2CCN(C(=O)c3ccc(OC(C)=O)cc3)CC2)CCO1 [Example 169]
IC50 [1]: 6.09 nM
Effect [2]: ++
ED5% (mg/kg,i.v.) [3]: >30 mg/kg

Structure (SMILES): COc1cc(N)c(Cl)cc1C(=O)NC[C@H]1CN(CC2CCN(C(=O)Nc3ccccc3)CC2)CCO1 [Example 52]
IC50 [1]: 1.94 nM
Effect [2]: −

Structure (SMILES): CC(=O)N1CCC(CN2CCO[C@@H](CNC(=O)c3cc(Cl)c(N)c4c3OCC4)C2)CC1 [Example 231]
IC50 [1]: 9.18 nM
Effect [2]: ++
